Laboratory results as given in the supplement of paper PMC6045584.
± gives the standard deviation of the averaged measurements.

What was measured:
CAMPTOTHECIN = compound: CC[C@@]1(O)C(=O)OCc2c1cc1n(c2=O)Cc2cc3ccccc3nc2-1 [CAMPTOTHECIN]; assay: surviving fraction relative to DMSO-only wells; higher = less growth inhibition; conditions: exposure time: 5 days
Outline: (§1)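 Viability values are CellTiter-Glo luminescence readings, given as surviving fraction against the median of DMSO-only wells. The readings were taken after 10 minutes at room temperature, following five days of continuous exposure to inhibitors at 0.5, 1, 5, 10, 50, 100, 500 and 1000 nM that began 24 hours after log-phase tumour cell lines were seeded at 250–500 cells per well in 384-well plates. Every line was screened three times and kept only if replicate Pearson r >0.7 and median Z' >0.3.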

CELECOXIB = compound: Cc1ccc(-c2cc(C(F)(F)F)nn2-c2ccc(S(N)(=O)=O)cc2)cc1 [CELECOXIB]; assay: as above; conditions: exposure time: 5 days
Outline: as §1

| Test System | surviving fraction (CAMPTOTHECIN; 0.5 nM) | surviving fraction (CAMPTOTHECIN; 1 nM) | surviving fraction (CAMPTOTHECIN; 5 nM) | surviving fraction (CAMPTOTHECIN; 10 nM) | surviving fraction (CAMPTOTHECIN; 50 nM) | surviving fraction (CAMPTOTHECIN; 100 nM) | surviving fraction (CAMPTOTHECIN; 500 nM) | surviving fraction (CAMPTOTHECIN; 1000 nM) | surviving fraction (CELECOXIB; 0.5 nM) | surviving fraction (CELECOXIB; 1 nM) | surviving fraction (CELECOXIB; 5 nM) | surviving fraction (CELECOXIB; 10 nM) | surviving fraction (CELECOXIB; 50 nM) | surviving fraction (CELECOXIB; 100 nM) | surviving fraction (CELECOXIB; 500 nM) | surviving fraction (CELECOXIB; 1000 nM) |
| --- | --- | --- | --- | --- | --- | --- | --- | --- | --- | --- | --- | --- | --- | --- | --- | --- |
| H23 LUNG | 0.919 ± 0.02 | 0.916 ± 0.041 | 0.56 ± 0.021 | 0.269 ± 0.0046 | 0.0917 ± 0.006 | 0.0627 ± 0.0011 | 0.0193 ± 0.00058 | 0.0197 ± 0.00058 | 1.01 ± 0.018 | 1.04 ± 0.062 | 1.04 ± 0.021 | 1.03 ± 0.05 | 1.07 ± 0.05 | 1.18 ± 0.067 | 1.18 ± 0.015 | 1.16 ± 0.074 |
| SUM44 BREAST | 0.808 ± 0.15 | 0.813 ± 0.082 | 0.835 ± 0.11 | 0.846 ± 0.056 | 0.985 ± 0.12 | 0.927 ± 0.096 | 0.326 ± 0.038 | 0.231 ± 0.048 | 1.28 ± 0.4 | 1.25 ± 0.47 | 1.35 ± 0.54 | 1.26 ± 0.34 | 1.36 ± 0.47 | 1.46 ± 0.53 | 1.35 ± 0.5 | 1.37 ± 0.42 |
| VCAP PROSTATE | 0.879 ± 0.094 | 0.902 ± 0.052 | 0.801 ± 0.1 | 0.508 ± 0.034 | 0.412 ± 0.028 | 0.4023 ± 0.0023 | 0.219 ± 0.034 | 0.158 ± 0.069 | 1.07 ± 0.068 | 1.08 ± 0.17 | 1.06 ± 0.067 | 1.14 ± 0.1 | 1.13 ± 0.018 | 1.12 ± 0.072 | 1.07 ± 0.029 | 1.05 ± 0.11 |
| CME SYNOVIAL | 0.013 ± 0.0036 | 0.14 ± 0.019 | 0.0177 ± 0.00058 | 0.0897 ± 0.018 | 0.028 ± 0.0027 | 0.152 ± 0.017 | 0.1177 ± 0.00058 | 0.229 ± 0.0051 | 1.4 ± 0.11 | 1.45 ± 0.18 | 1.37 ± 0.076 | 1.34 ± 0.079 | 1.47 ± 0.23 | 1.41 ± 0.16 | 1.38 ± 0.13 | 1.34 ± 0.076 |
| HCT15 LARGE INTESTINE | 0.33 ± 0.031 | 0.779 ± 0.041 | 0.232 ± 0.083 | 0.0333 ± 0.0047 | 0.0227 ± 0.0038 | 0.0337 ± 0.0038 | 0.0207 ± 0.0021 | 0.0277 ± 0.0038 | 1.02 ± 0.062 | 1.03 ± 0.031 | 1.06 ± 0.039 | 1.04 ± 0.022 | 1.07 ± 0.061 | 1.07 ± 0.077 | 1.09 ± 0.053 | 1.1 ± 0.044 |
| S68 BREAST | 0.576 ± 0.087 | 0.544 ± 0.073 | 0.442 ± 0.11 | 0.342 ± 0.041 | 0.284 ± 0.045 | 0.218 ± 0.021 | 0.0747 ± 0.012 | 0.0687 ± 0.0057 | 1.18 ± 0.21 | 1.07 ± 0.24 | 1.26 ± 0.17 | 1.19 ± 0.15 | 1 ± 0.29 | 1.21 ± 0.15 | 0.95 ± 0.34 | 1.2 ± 0.11 |
| SG43 HEADNECK | 1.16 ± 0.13 | 1.18 ± 0.2 | 1.01 ± 0.11 | 0.854 ± 0.18 | 0.624 ± 0.044 | 0.329 ± 0.04 | 0.256 ± 0.054 | 0.143 ± 0.037 | 0.96 ± 0.3 | 1.22 ± 0.49 | 0.942 ± 0.31 | 0.929 ± 0.28 | 0.938 ± 0.21 | 1.14 ± 0.051 | 1.04 ± 0.035 | 1.08 ± 0.08 |
| BT20 BREAST | 0.764 ± 0.067 | 0.744 ± 0.088 | 0.492 ± 0.089 | 0.197 ± 0.015 | 0.096 ± 0.0052 | 0.0537 ± 0.0075 | 0.0213 ± 0.0015 | 0.0257 ± 0.0025 | 1.14 ± 0.085 | 1.1 ± 0.035 | 1.08 ± 0.059 | 1.19 ± 0.077 | 1.11 ± 0.072 | 1.22 ± 0.061 | 1.23 ± 0.059 | 1.07 ± 0.047 |
| T47D BREAST | 0.819 ± 0.035 | 0.878 ± 0.023 | 0.743 ± 0.019 | 0.528 ± 0.012 | 0.259 ± 0.013 | 0.236 ± 0.0055 | 0.157 ± 0.006 | 0.137 ± 0.0086 | 1.08 ± 0.026 | 1.05 ± 0.081 | 1.08 ± 0.043 | 1.08 ± 0.035 | 1.14 ± 0.054 | 1.15 ± 0.021 | 1.11 ± 0.014 | 1.13 ± 0.012 |
| VP229 BREAST | 0.862 ± 0.018 | 0.912 ± 0.14 | 0.794 ± 0.17 | 0.662 ± 0.14 | 0.569 ± 0.037 | 0.348 ± 0.084 | 0.0443 ± 0.01 | 0.0333 ± 0.0031 | 1.15 ± 0.15 | 1.21 ± 0.19 | 1.21 ± 0.12 | 1.12 ± 0.13 | 1.15 ± 0.052 | 1.27 ± 0.03 | 1.25 ± 0.076 | 1.4 ± 0.049 |
| SG31 HEADNECK | 0.444 ± 0.03 | 0.911 ± 0.064 | 0.607 ± 0.074 | 0.715 ± 0.1 | 0.376 ± 0.021 | 0.37 ± 0.049 | 0.189 ± 0.017 | 0.133 ± 0.018 | 1.27 ± 0.19 | 1.4 ± 0.5 | 1.11 ± 0.21 | 1.11 ± 0.25 | 1.15 ± 0.17 | 1.1 ± 0.063 | 1.63 ± 0.2 | 1.52 ± 0.15 |
| HS57T BREAST | 0.826 ± 0.044 | 0.849 ± 0.041 | 0.79 ± 0.011 | 0.505 ± 0.031 | 0.192 ± 0.007 | 0.149 ± 0.0066 | 0.0707 ± 0.0025 | 0.0653 ± 0.0081 | 1.028 ± 0.0046 | 1.04 ± 0.052 | 1.06 ± 0.022 | 1.09 ± 0.08 | 1.04 ± 0.06 | 1.09 ± 0.04 | 1.02 ± 0.055 | 0.867 ± 0.021 |
| G292 BONE | 0.901 ± 0.015 | 0.874 ± 0.047 | 0.591 ± 0.037 | 0.383 ± 0.014 | 0.292 ± 0.0027 | 0.18 ± 0.012 | 0.121 ± 0.0073 | 0.102 ± 0.0078 | 1.03 ± 0.028 | 1.02 ± 0.05 | 1.03 ± 0.039 | 1 ± 0.057 | 1.04 ± 0.02 | 1.02 ± 0.047 | 0.996 ± 0.045 | 0.964 ± 0.076 |
| CAL51 BREAST | 0.923 ± 0.077 | 0.881 ± 0.05 | 0.797 ± 0.027 | 0.52 ± 0.014 | 0.0468 ± 0.0037 | 0.0333 ± 0.0025 | 0.0225 ± 0.00087 | 0.0242 ± 0.0021 | 1.03 ± 0.023 | 1.04 ± 0.056 | 0.991 ± 0.026 | 0.998 ± 0.08 | 1.07 ± 0.027 | 1.11 ± 0.03 | 1.07 ± 0.021 | 1.05 ± 0.064 |
| 93VU HEADNECK | 0.844 ± 0.091 | 0.838 ± 0.038 | 0.805 ± 0.036 | 0.789 ± 0.063 | 0.464 ± 0.021 | 0.277 ± 0.043 | 0.103 ± 0.018 | 0.061 ± 0.007 | 1.02 ± 0.064 | 1.11 ± 0.076 | 1.1 ± 0.043 | 1.08 ± 0.16 | 1.03 ± 0.083 | 1.08 ± 0.15 | 1.08 ± 0.052 | 1.07 ± 0.086 |
| CAL120 BREAST | 0.901 ± 0.069 | 0.819 ± 0.0086 | 0.409 ± 0.033 | 0.314 ± 0.035 | 0.182 ± 0.011 | 0.105 ± 0.0043 | 0.0285 ± 0.0023 | 0.0287 ± 0.0014 | 0.962 ± 0.045 | 0.979 ± 0.039 | 0.964 ± 0.067 | 0.99 ± 0.049 | 1 ± 0.04 | 1.01 ± 0.032 | 0.995 ± 0.085 | 1 ± 0.011 |
